Data: patent US10131652B2, “Pyrimidinyloxy benzene derivatives as herbicides” (E. I. DU PONT DE NEMOURS AND COMPANY, priority 2014, dated 2018)

Legend:
Format in all cases: in vivo
[1] = system: Italian ryegrass (Lolium multiflorum); experiment: Test B pre-/postemergence plant response
Summary of the method: (§1)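 Visual injury rating, 0 (no effect) to 100 (complete control), vs untreated controls after ~10 d greenhouse. Pre: directed soil spray after planting in loam/sand. Post: plants 2–10 cm, 1–2 leaf stage. Compound in non-phytotoxic solvent plus surfactant.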

[2] = system: barnyardgrass (Echinochloa crus-galli); experiment: Test B pre-/postemergence plant response
Summary of the method: as §1

corn (Zea mays) = experiment: Test B pre-/postemergence plant response
Summary of the method: as §1

[3] = system: giant foxtail (Setaria faberii); experiment: Test B pre-/postemergence plant response
Summary of the method: as §1

kochia (Kochia scoparia) = experiment: Test B pre-/postemergence plant response
Summary of the method: as §1

[4] = system: pigweed (Amaranthus retroflexus); experiment: Test B pre-/postemergence plant response
Summary of the method: as §1

[5] = system: ragweed (common ragweed, Ambrosia elatior); experiment: Test B pre-/postemergence plant response
Summary of the method: as §1

[6] = system: wheat (Triticum aestivum); experiment: Test B pre-/postemergence plant response
Summary of the method: as §1

[7] = system: blackgrass (Alopecurus myosuroides); experiment: Test B postemergence plant response
Summary of the method: (§2)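 Plants grown in pots of loam soil–sand blend were sprayed postemergence with formulated test chemicals at 2 to 10 cm height, one- to two-leaf stage. After about 10 days in a greenhouse, injury was visually rated against untreated controls on a 0 to 100 scale (0 no effect, 100 complete control).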

[8] = system: galium (catchweed bedstraw, Galium aparine); experiment: Test B postemergence plant response
Summary of the method: as §2

[9] = system: barnyardgrass (Echinochloa crus-galli); experiment: Test C flooded paddy test plant response; conditions: Flood, 250 g ai/ha; scale of 0 to 100 where 0 is no effect and 100 is complete control; 13 to 15 days
Summary of the method: (§3)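 2-leaf plants; flood 3 cm, cpd into paddy water; greenhouse 13–15 d; visual score vs untreated, 0 = no effect, 100 = complete control; dash = no result.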

[10] = system: ducksalad (Heteranthera limosa); experiment: Test C flooded paddy test plant response; conditions: Flood, 250 g ai/ha; scale of 0 to 100 where 0 is no effect and 100 is complete control; 13 to 15 days
Summary of the method: as §3

rice (Oryza sativa) = experiment: Test C flooded paddy test plant response; conditions: Flood, 250 g ai/ha; scale of 0 to 100 where 0 is no effect and 100 is complete control; 13 to 15 days
Summary of the method: as §3

[11] = system: small-flower umbrella sedge (Cyperus difformis); experiment: Test C flooded paddy test plant response; conditions: Flood, 250 g ai/ha; scale of 0 to 100 where 0 is no effect and 100 is complete control; 13 to 15 days
Summary of the method: as §3

[12] = 31 g ai/ha, Postemergence, 0 to 100 scale, 0 no effect, 100 complete control
[13] = 125 g ai/ha, postemergence, 0 to 100 scale, 0 no effect, 100 complete control
[14] = Preemergence, 31 g ai/ha, 0 to 100 scale (0 no effect, 100 complete control)
[15] = Preemergence, 125 g ai/ha, 0 to 100 scale where 0 is no effect and 100 is complete control
[16] = 31 g ai/ha, Preemergence, 0 to 100 scale where 0 is no effect and 100 is complete control
[17] = Postemergence, 31 g ai/ha, 0 to 100 scale (0 no effect, 100 complete control)
[18] = Preemergence, 125 g ai/ha, 0 to 100 scale (0 no effect, 100 complete control)

Clc1cnc(Oc2ccccc2-c2cc(C(Cl)Cl)on2)nc1 [Compound 97]
0: Plant response rating, Ryegrass, Italian [1, 12] | Plant response rating, Ryegrass, Italian [1, 13] | Ryegrass, Italian plant response rating [1, 14] | Plant response rating, Ryegrass, Italian [1, 15] | Plant response rating, Barnyardgrass [2, 12] | Barnyardgrass plant response rating [2, 14] | Plant response rating, Barnyardgrass [2, 15] | Plant response rating, Corn (corn (Zea mays); [12]) | Plant response rating, Foxtail, Giant [3, 12] | Kochia plant response rating (kochia (Kochia scoparia); [14]) | Ragweed plant response rating [5, 14] | Plant response rating, Ragweed [5, 15] | Plant response rating, Wheat [6, 12] | Plant response rating, Wheat [6, 13] | Plant response rating, Blackgrass [7, 12] | Plant response rating, Blackgrass [7, 13] | Barnyardgrass plant response rating [9] | Ducksalad plant response rating [10] | Rice plant response rating (rice (Oryza sativa))
20: Plant response rating, Barnyardgrass [2, 13] | Plant response rating, Corn (corn (Zea mays); [13]) | Pigweed plant response rating [4, 14] | Plant response rating, Ragweed [5, 12]
60: Plant response rating, Kochia (kochia (Kochia scoparia); [12]) | Plant response rating, Pigweed [4, 12]
30: Plant response rating, Foxtail, Giant [3, 13] | Plant response rating, Foxtail, Giant [3, 15] | Plant response rating, Kochia (kochia (Kochia scoparia); [15])
90: Plant response rating, Kochia (kochia (Kochia scoparia); [13]) | Plant response rating, Pigweed [4, 13]
10: Foxtail, Giant plant response rating [3, 14] | Plant response rating, Galium [8, 12]
50: Plant response rating, Pigweed [4, 15] | Plant response rating, Ragweed [5, 13] | Plant response rating, Galium [8, 13] | Sedge, Umbrella plant response rating [11]

N#Cc1cc(-c2ccccc2Oc2ncc(Cl)cn2)on1 [Compound 223]
70: Sedge, Umbrella plant response rating [11]
0: Plant response rating, Ryegrass, Italian [1, 16] | Plant response rating, Ryegrass, Italian [1, 13] | Plant response rating, Ryegrass, Italian [1, 17] | Ryegrass, Italian plant response rating [1, 18] | Plant response rating, Barnyardgrass [2, 16] | Plant response rating, Barnyardgrass [2, 17] | Barnyardgrass plant response rating [2, 18] | Plant response rating, Corn (corn (Zea mays); [13]) | Plant response rating, Corn (corn (Zea mays); [17]) | Plant response rating, Foxtail, Giant [3, 16] | Plant response rating, Foxtail, Giant [3, 17] | Foxtail, Giant plant response rating [3, 18] | Plant response rating, Kochia (kochia (Kochia scoparia); [16]) | Plant response rating, Kochia (kochia (Kochia scoparia); [17]) | Kochia plant response rating (kochia (Kochia scoparia); [18]) | Plant response rating, Pigweed [4, 16] | Plant response rating, Ragweed [5, 16] | Plant response rating, Ragweed [5, 17] | Ragweed plant response rating [5, 18] | Plant response rating, Wheat [6, 13] | Plant response rating, Wheat [6, 17] | Plant response rating, Blackgrass [7, 13] | Plant response rating, Blackgrass [7, 17] | Barnyardgrass plant response rating [9] | Rice plant response rating (rice (Oryza sativa))
65: Ducksalad plant response rating [10]
50: Plant response rating, Galium [8, 13]
20: Plant response rating, Pigweed [4, 17]
30: Plant response rating, Galium [8, 17]
60: Plant response rating, Pigweed [4, 13]
10: Plant response rating, Barnyardgrass [2, 13] | Plant response rating, Foxtail, Giant [3, 13] | Plant response rating, Kochia (kochia (Kochia scoparia); [13]) | Pigweed plant response rating [4, 18] | Plant response rating, Ragweed [5, 13]

Brc1cnc(Oc2ccccc2-c2ccno2)nc1 [Compound 155]
0: Plant response rating, Ryegrass, Italian [1, 16] | Plant response rating, Ryegrass, Italian [1, 13] | Plant response rating, Ryegrass, Italian [1, 17] | Ryegrass, Italian plant response rating [1, 18] | Plant response rating, Barnyardgrass [2, 16] | Plant response rating, Barnyardgrass [2, 13] | Plant response rating, Barnyardgrass [2, 17] | Barnyardgrass plant response rating [2, 18] | Plant response rating, Corn (corn (Zea mays); [13]) | Plant response rating, Corn (corn (Zea mays); [17]) | Plant response rating, Foxtail, Giant [3, 16] | Plant response rating, Foxtail, Giant [3, 13] | Plant response rating, Foxtail, Giant [3, 17] | Foxtail, Giant plant response rating [3, 18] | Plant response rating, Kochia (kochia (Kochia scoparia); [16]) | Plant response rating, Kochia (kochia (Kochia scoparia); [13]) | Plant response rating, Kochia (kochia (Kochia scoparia); [17]) | Kochia plant response rating (kochia (Kochia scoparia); [18]) | Plant response rating, Pigweed [4, 16] | Plant response rating, Pigweed [4, 13] | Plant response rating, Pigweed [4, 17] | Pigweed plant response rating [4, 18] | Plant response rating, Ragweed [5, 16] | Plant response rating, Ragweed [5, 13] | Plant response rating, Ragweed [5, 17] | Ragweed plant response rating [5, 18] | Plant response rating, Wheat [6, 13] | Plant response rating, Wheat [6, 17] | Plant response rating, Blackgrass [7, 13] | Plant response rating, Blackgrass [7, 17] | Plant response rating, Galium [8, 13] | Plant response rating, Galium [8, 17] | Barnyardgrass plant response rating [9] | Ducksalad plant response rating [10] | Rice plant response rating (rice (Oryza sativa)) | Sedge, Umbrella plant response rating [11]

Fc1ccc(-c2cc(C(F)(F)F)no2)c(Oc2ncc(Br)cn2)c1 [Compound 125]
100: Plant response rating, Galium [8, 13]
90: Foxtail, Giant plant response rating [3, 18] | Plant response rating, Pigweed [4, 13] | Sedge, Umbrella plant response rating [11]
50: Barnyardgrass plant response rating [2, 18]
0: Plant response rating, Ryegrass, Italian [1, 16] | Plant response rating, Barnyardgrass [2, 16] | Plant response rating, Corn (corn (Zea mays); [12]) | Plant response rating, Foxtail, Giant [3, 12] | Plant response rating, Kochia (kochia (Kochia scoparia); [16]) | Plant response rating, Pigweed [4, 16] | Plant response rating, Ragweed [5, 16] | Ragweed plant response rating [5, 18] | Plant response rating, Wheat [6, 13] | Barnyardgrass plant response rating [9] | Rice plant response rating (rice (Oryza sativa))
40: Kochia plant response rating (kochia (Kochia scoparia); [18])
80: Plant response rating, Kochia (kochia (Kochia scoparia); [13]) | Pigweed plant response rating [4, 18] | Ducksalad plant response rating [10]
30: Plant response rating, Barnyardgrass [2, 13] | Plant response rating, Blackgrass [7, 13]
10: Plant response rating, Ryegrass, Italian [1, 13] | Ryegrass, Italian plant response rating [1, 18] | Plant response rating, Barnyardgrass [2, 12] | Plant response rating, Corn (corn (Zea mays); [13]) | Plant response rating, Foxtail, Giant [3, 16] | Plant response rating, Blackgrass [7, 12]
20: Plant response rating, Foxtail, Giant [3, 13] | Plant response rating, Ragweed [5, 13]
